Consider 13 compounds from ChEMBL document CHEMBL1201862, “PubChem BioAssay data set” (2004).

Holding throughout (assay): inhibition of tumour cell growth, NCI panel, 48 h
For assay [1], the system named is HOP-62.
In assay [2] the test system is LOX IMVI.
Assay [3] has as its system 786-0.
In assay [4] the test system is OVCAR-8.
Assay [5] has as its system Malme-3M.
Assay [6] relates to IGROV-1.
Assay [7] has as its system NCI-H522.
Assay [8] concerns HL-60.
Assay [9] has as its system KM12.
The subject of assay [10] is UACC-257.
The subject of assay [11] is HOP-92.
Assay [12] relates to U-251.
In assay [13] the test system is ACHN.
The test system of assay [14] is TK-10.
For assay [15], the system named is SNB-75.
The subject of assay [16] is NCI-H226.
Assay [17] has as its system A498.

Structures are written as SMILES.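 These data come from cells grown in 96-well plates and exposed to compound for 48 hours at five concentrations. GI50: concentration for 50% inhibition of growth.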 Activity calls are given as the source filed them. Rule as the data show it: active = GI50 up to about 1.1 µM and inactive = higher. Bounds are passed on as bounds.

Take `C/C=C/CC(C)[C@@H](O)[C@H](NC)C(=O)O` (some centres undefined): the GI50 in assay [1], in assay [2], in assay [3], in assay [4], in assay [5] and in assay [6] was > 100 µM (inactive) throughout. For the same compound, the GI50 in [7], in assay [8], in assay [9], in assay [10], in assay [11] and in [12] was > 100 µM (inactive) each time. Further, the GI50 in assay [13], in assay [14] and in assay [15] was > 100 µM (inactive) each time.
On to `Cc1nc(N)nc(N)c1CCCc1ccccc1`, for which the GI50 in [1] is 12.1 µM (inactive); in assay [2], 3.18 µM (inactive); in assay [3], 3.66 µM (inactive); in [4] it was 7.59 µM (inactive); in [5], 1.73 µM (inactive); in [6], 6.11 µM (inactive). Further, the GI50 is 7.18 µM (inactive) in [7]; 6.35 µM (inactive) in assay [8]; 28.6 µM (inactive) in assay [9]; 97.7 µM (inactive) in assay [16]; 12.7 µM (inactive) in [10]; 11.6 µM (inactive) in assay [11]. Moreover, the GI50 in [12] was 5.36 µM (inactive); in assay [13] it was 4.35 µM (inactive); in [14], > 100 µM (inactive); in assay [15], 38.3 µM (inactive).
As to `Cc1cc(C)c2c(c1)CSCc1cc(C)cc(C)c1-2`, the GI50 in assay [1] is 27.6 µM (inactive); in assay [2], 17.3 µM (inactive); in assay [3] it was 32.5 µM (inactive); in assay [4] it was 33 µM (inactive); in assay [5], 18.1 µM (inactive); in assay [6], 34.1 µM (inactive). For the same compound, the GI50 was 22.5 µM (inactive) in assay [7]; 28.1 µM (inactive) in [17]; 21.1 µM (inactive) in assay [8]; 42.6 µM (inactive) in [9]; 38.8 µM (inactive) in assay [16]; 24.8 µM (inactive) in assay [10]. Also, the GI50 in [12] was 19.8 µM (inactive); in assay [13], 35.4 µM (inactive); in [14], > 100 µM (inactive); in [15], 37.3 µM (inactive).
For `COc1cc(C2C(Cl)C(=O)N2n2cnc3ccccc3c2=O)cc(OC)c1OC` (centres undefined), the GI50 in [1] is > 100 µM (inactive); in assay [2] it was 57.4 µM (inactive); in [3] it was > 100 µM (inactive); in assay [4], > 100 µM (inactive); in [5], > 100 µM (inactive); in assay [6] it was > 100 µM (inactive). Moreover, the GI50 was > 100 µM (inactive) in [7]; 28.2 µM (inactive) in assay [8]; 41.9 µM (inactive) in assay [9]; > 100 µM (inactive) in [16]; 55.8 µM (inactive) in assay [10]; > 100 µM (inactive) in assay [12]. The GI50 in [13] is > 100 µM (inactive); in [14], > 100 µM (inactive); in assay [15] it was 65.5 µM (inactive).
Regarding `O=C1CC2CCCCC2=C1O` (centres undefined), the GI50 in assay [1], in assay [2], in assay [3], in [4], in assay [5] and in assay [6] was > 100 µM (inactive) in each case. In addition, the GI50 in assay [7], in assay [17], in assay [8], in [9], in assay [10] and in assay [12] was > 100 µM (inactive) each time. Besides, the GI50 in assay [13], in assay [14] and in [15] was > 100 µM (inactive) each time.
Regarding `C#CC[C@]12CC(=O)CC[C@H]1CC1(C2)OCCO1`, the GI50 in [1], in assay [3], in assay [4], in [5], in assay [6] and in assay [7] was > 100 µM (inactive) throughout. Further, the GI50 in assay [17], in assay [8], in [9], in [16], in assay [10] and in assay [12] was > 100 µM (inactive) each time. The GI50 in assay [13], in [14] and in [15] was > 100 µM (inactive) in each case.
Consider `COC(=O)CCC(=O)Nc1ccc(Cl)cc1C`, for which the GI50 in [1] was 39.4 µM (inactive); in assay [2], > 25.8 µM (inactive); in [3] it was > 50.8 µM (inactive); in assay [4] it was > 100 µM (inactive); in [5], > 100 µM (inactive); in assay [6] it was > 64 µM (inactive). In addition, the GI50 is 3.41 µM (inactive) in assay [7]; 0.399 µM (active) in assay [8]; 15.5 µM (inactive) in [9]; > 52.6 µM (inactive) in [16]; > 67.1 µM (inactive) in [10]; > 60.8 µM (inactive) in assay [11]. Moreover, the GI50 was > 22.4 µM (inactive) in assay [12], > 37.2 µM (inactive) in assay [13], > 100 µM (inactive) in assay [14] and > 74.5 µM (inactive) in assay [15].
As to `CN1C(=O)CCC1(O)C1C=CC=CC1` (centres undefined), the GI50 in [1], in assay [2], in assay [3], in assay [4], in assay [5] and in assay [6] was > 100 µM (inactive) throughout. Moreover, the GI50 in assay [7], in [8], in [9], in [16], in assay [10] and in [12] was > 100 µM (inactive) each time. The GI50 in assay [13], in [14] and in assay [15] was > 100 µM (inactive) throughout.
With `CC(=O)Nc1ccc(-c2nnc(SCC(=O)Nc3cccc([N+](=O)[O-])c3)o2)cc1`, the GI50 was 22.9 µM (inactive) in [1]; 8.77 µM (inactive) in assay [2]; 17.6 µM (inactive) in assay [3]; 16.2 µM (inactive) in assay [4]; 11.6 µM (inactive) in assay [5]; 4.11 µM (inactive) in [6]. The GI50 in assay [7] is 10.1 µM (inactive); in assay [8] it was 10.6 µM (inactive); in [9], 17.3 µM (inactive); in assay [16], 10.8 µM (inactive); in [10], 17.3 µM (inactive); in [11], 17.1 µM (inactive). Besides, the GI50 was 14.6 µM (inactive) in [12], 15.4 µM (inactive) in assay [13], 23.6 µM (inactive) in [14] and 17.8 µM (inactive) in assay [15].
Consider `Cc1ccc(S(=O)(=O)OC2CSSCC2OS(=O)(=O)c2ccc(C)cc2)cc1` (centres undefined), for which the GI50 in [1] is 20.3 µM (inactive); in [2], 13.8 µM (inactive); in assay [3] it was 12.6 µM (inactive); in [4], 13.3 µM (inactive); in assay [5] it was 19.2 µM (inactive); in assay [6], 16.8 µM (inactive). The GI50 in [7] is 10.9 µM (inactive); in assay [8], 2.62 µM (inactive); in assay [9] it was 14.1 µM (inactive); in assay [16], 17.9 µM (inactive); in assay [10], 10.2 µM (inactive); in [11], 11.4 µM (inactive). For the same compound, the GI50 is 14 µM (inactive) in assay [12], 15.3 µM (inactive) in assay [13], 15.3 µM (inactive) in assay [14] and 12.8 µM (inactive) in [15].
On to `N=C(N)SCCc1cn2ccccc2n1`, for which the GI50 in assay [1], in [2], in assay [3], in assay [4], in assay [5] and in assay [7] was > 100 µM (inactive) each time. The GI50 in [8], in assay [9], in assay [16], in [10], in assay [12] and in [13] was > 100 µM (inactive) throughout. For the same compound, the GI50 in assay [14] and in assay [15] was > 100 µM (inactive) in each case.
In the case of `CC(C)C1CC(O)O[C@@H]([C@@H](C)[C@H]2CC(=O)[C@@H]3[C@@H]4[C@@H](O)[C@H](O)[C@H]5[C@@H](O)[C@H](O)CC[C@]5(C)[C@H]4CC[C@]23C)C1` (some centres undefined), the GI50 was 21.2 µM (inactive) in [1]; 50.1 µM (inactive) in [2]; 48 µM (inactive) in assay [3]; 54.1 µM (inactive) in assay [4]; 77.4 µM (inactive) in assay [5]; 24.5 µM (inactive) in assay [6]. For the same compound, the GI50 is 70.1 µM (inactive) in assay [7]; > 100 µM (inactive) in [8]; 28.6 µM (inactive) in assay [9]; > 100 µM (inactive) in assay [16]; 5.06 µM (inactive) in [10]; 22.2 µM (inactive) in assay [11]. Also, the GI50 in [12] is 63 µM (inactive); in [13], 24.4 µM (inactive); in [14], 38.3 µM (inactive); in assay [15], 22.2 µM (inactive).
As to `COc1cc(CNc2ccc(C(C)C)cc2)cc(OC)c1OC`, the GI50 in assay [1] is 23.9 µM (inactive); in assay [2], 16.2 µM (inactive); in assay [3], 15.4 µM (inactive); in assay [4], 28 µM (inactive); in assay [5] it was 19.5 µM (inactive); in assay [6] it was 31 µM (inactive). Moreover, the GI50 is 30.4 µM (inactive) in assay [17]; 18.5 µM (inactive) in [9]; 25.8 µM (inactive) in [10]; 20.3 µM (inactive) in [11]; 15.4 µM (inactive) in assay [12]; 21.8 µM (inactive) in assay [13]. Further, the GI50 in assay [14] is 47.4 µM (inactive); in [15] it was 23.7 µM (inactive).
